The subject of assay [1] is plasma hemostasis. Put plainly: Prothrombin time after intravenous administration. The class given is in vivo, rabbit. The procedure: The static parameters of the blood and plasma coagulation (partial activated thromboplastin time, thrombin time, maximum coagulation activity (test for auto coagulation) were determined using the Behnk Electronic coagulometer (Germany). The operating principle of this instrument is based on the fact that the formed blood clot breaks the contacts of the pulse counter in the flask-pin circuit, said pin permanently oscillating in a vertical plane. The moment of formation of the clot is registered by stopping the stop watch hand.
The measurements were effected at a constant temperature of 37° C. maintained by a temperature control unit.
The method of its determination is based on estimation of the coagulation of citrate or oxalic blood plasma, when it is mixed with thromboplastin and a calcium chloride solution. Since under these conditions the time of formation of the clot depends on the content of II, VII, IX and X factors in the investigated plasma sample, now the test is called “thromboplastin time by Quick” or “activity thromboplastin complex”.
Citrate blood containing 1 part of citrate per 9 parts of native blood was centrifuged at 3000 rev/min for 10 minutes to obtain plasma deprived of thrombocytes.
Added into a test tube in a water bath were 0.1 ml of plasma and 0.1 ml of a thromboplastin solution.

Assay [2] can be described thus: Morphine abstinence model: nitrites/nitrates NOX− in blood plasma, liver and brain. The class given is in vivo, rats Wistar. The settings on record: 20.0 mg/kg intramuscularly; for Nitrites in liver: control 0.260 ± 0.023; for Nitrites in brain: Cortex of cerebrum: control 4.63 ± 0.29; for Nitrites in brain: Mesencephalon: control 5.66 ± 0.19; for Nitrites in brain: Hypothalamus: control 6.57 ± 0.50; for Nitrites in blood plasma: control 18.30 ± 2.14. The procedure: The experiments were carried out on rats in series of 7 animals on each compound according to the invention. Non-morphinized animal with not administered with compounds according to the invention were used as a control group. […] Then the rats were decapitated, the blood from somnolent arteries was collected in test tubes with solution EDTA as an anticoagulant, centrifuged at 1500 g for 15 minutes at 4° C.
To estimate the intensity of metabolism of nitrogen oxide in rats, quantitative determination of stable metabolites of nitrogen oxide—nitrites and nitrates NOX^− in the blood plasma, supernatanates of the liver and thymus gland, a study was conducted by a spectrometric method, and in the brain supernatanates by a […] method.
The spectrometric method is based the reaction of nitrites with the Griss reagent (a mixture of 2% solution of sulfanilamide and 0.2% N-(1-naphthyl)ethylene diamine. At the first step the nitrite reacts with sulfanilamide with formation of diazonium salt, and then with the second component to form azo dye with an adsorption maximum at 540 nm. For reduction of nitrates into nitrites, a fermentative method was used with bacterial reductase nitrate (Grisham M. B. et al., 1995). The samples of plasma and supernathant of the liver deproteinizated at 100° C. for 5 minutes incubated for 30 minutes at 37° C. in 50.0 mM of HEPES pH 7.4 in the presence of 0.2 unit/ml of Aspergillus reductase nitrate, 5.0 mkM of FAD and 0.1 mM of NAD-Ph. At the end of the reaction lactate dehydrogenase and pyruvate were added for isolation of NAD-Ph interfering with the Griss reaction. Then the Griss reagent was added and after 10-minute incubation the light absorption of the samples was measured at 540 nm. To amount of NOX^− was calculated using sodium nitrate as a standard.
The fluorometric method is based on calculation of the nitrite level by the intensity fluorescence of 2,3-diaminonaphthotriazole, a product of reaction of 2,3-diaminonaphthalene (DAN) and nitrite in an acidic medium (Misko T. R., Schilling R. J., Salvemini D. et al. “A fluorometric assay for the measurement of nitrite of biological samples”. Anal. Biochem., 1993, v. 214, p. 11-16). The brain supernatants deproteinizated at 100° C. were placed in a nitrite regenerating system containing 0.125 unit/ml of nitrate reductases, 25 mkM NADPh and 25 mkM FAD prepared in a 20-mM Tris-HCl buffer with pH 7.6 and incubated for 30 minutes at 37° C. The lactate dehydrogenase/pyruvate system was used for oxidation of the NADPh. Then 316 mkM of the DAN solution in 0.62 M of hydrochloric acids were added and the mixture was incubated for 10 minutes in darkness.
280 mM of NaOH were added for stabilization of the fluorescence of the formed 2,3-diaminonaphthotriazole. The fluorescence intensity was measured in the spectrofluorimeter Hitachi F-3000 at a wavelength of excitation of 365 nm and an emission of 405 nm. The concentration of NOX^− in the brain was calculated by means of a standard solution of sodium nitrate.

For the compound `O=c1[nH][nH]c(=O)c2c(Br)ncnc12.[K]` [Compound 37, potassium salt of 4-bromine-pyrimido[4,5-D]-6H-pyridazine-5,8-dione], the “prothrombin time, T” value in assay [1] (15.0 mg/kg intravenously, after 15 minutes, control 11.8 ± 0.1) is given as 11.6 ± 0.2 s; in assay [1] (15.0 mg/kg intravenously, after 30 minutes, control 11.8 ± 0.1), 11.6 ± 0.1 s; in assay [1] (15.0 mg/kg intravenously, after 60 minutes, control 11.8 ± 0.1) it was 11.5 ± 0.2 s; in assay [1] (15.0 mg/kg intravenously, after 120 minutes, control 11.8 ± 0.1), 11.8 ± 0.1 s; in assay [1] (30.0 mg/kg intravenously, after 15 minutes, control 11.2 ± 0.1), 11.3 ± 0.1 s; in assay [1] (30.0 mg/kg intravenously, after 30 minutes, control 11.2 ± 0.1), 11.2 ± 0.2 s. In addition, the “prothrombin time, T” value in assay [1] (30.0 mg/kg intravenously, after 60 minutes, control 11.2 ± 0.1) was 11.4 ± 0.1 s; in assay [1] (30.0 mg/kg intravenously, after 120 minutes, control 11.2 ± 0.1), 11.1 ± 0.1 s; in assay [1] (60.0 mg/kg intravenously, after 15 minutes, control 12.0 ± 0.1), 12.1 ± 0.1 s; in assay [1] (60.0 mg/kg intravenously, after 30 minutes, control 12.0 ± 0.1), 12.0 ± 0.1 s; in assay [1] (60.0 mg/kg intravenously, after 60 minutes, control 12.0 ± 0.1), 12.1 ± 0.2 s; in assay [1] (60.0 mg/kg intravenously, after 120 minutes, control 12.0 ± 0.1), 12.0 ± 0.1 s. Also, the “effect on the prothrombin time index” value in assay [1] (doses of 15.0, 30.0, 60.0 mg/kg) was “have no effect on the prothrombin time index”. Also, the Nitrites in liver in assay [2] (Control + Compound) is 0.262 ± 0.018 nmol/mg of protein; in assay [2] (Control + Morphine + compound) it was 0.274 ± 0.01 nmol/mg of protein. Besides, the “Nitrites in brain: Cortex of cerebrum” value in assay [2] (Control + Compound) is listed as 4.36 ± 0.24 nmol/mg of protein; in assay [2] (Control + Morphine + compound), 4.77 ± 0.28 nmol/mg of protein. The “Nitrites in brain: Mesencephalon” value in assay [2] (Control + Compound) is on record as 6.84 ± 0.56 nmol/mg of protein; in assay [2] (Control + Morphine + compound), 5.63 ± 0.37 nmol/mg of protein. For the same compound, the results for the “Nitrites in brain: Hypothalamus” value in assay [2] (Control + Compound) and in assay [2] (Control + Morphine + compound) were 6.79 ± 0.92 nmol/mg of protein and 6.52 ± 0.83 nmol/mg of protein, respectively. For the same compound, the “Nitrites in blood plasma” value is on record as 16.13 ± 1.80 mkmol/ml in assay [2] (Control + Compound) and 15.33 ± 0.87 mkmol/ml in assay [2] (Control + Morphine + compound).

These data come from patent US8592421B2, “Cyclic bioisosters of purine system derivatives and a pharmaceutical composition based thereon” (priority 2003, dated 2013).
